In patent US9353051B2, “Antiviral drugs for treatment or prevention of dengue infection” (Siga Technologies Inc., priority 2007, dated 2016):
Read-outs that look alike come from different tables or passages of the source.

What was measured:
[1] = system: Den-4; experiment: viral yield assay against Den-4; format: cell-based; settings: Dengue virus
[2] = system: Modoc; experiment: specificity: activity against Modoc; format: cell-based, murine flavivirus; settings: Orthoflavivirus, in Mus musculus
Procedure: (§1) Select compounds were also tested for more broad spectrum activity against other members of the Flaviviridae family including Modoc, which is a murine flavivirus, as well as Bovine Viral Diarrhea Virus (BVDV), which is a Pestivirus. Since dengue virus is able to replicate in multiple cell lines and to ensure that the activity seen in vero cells is consistent, select compounds were also tested for their effective concentration in a viral yield assay against dengue-2 in C6/36 mosquito cells.

[3] = system: dengue-2 in C6/36 mosquito cells; experiment: viral yield assay against dengue-2 in C6/36 mosquito cells; format: cell-based; settings: Dengue virus, dengue-2, C6/36 mosquito cells, read-out: Specificity C6/36
Procedure: as §1

[4] = system: Den-3; experiment: viral yield assay against Den-3; format: cell-based; settings: Dengue virus
[5] = system: Den-1; experiment: viral yield assay against Den-1; format: cell-based; settings: Dengue virus
[6] = system: Dengue-2 (Strain New Guinea C); experiment: viral yield assay against Dengue-2 in Vero cells; format: cell-based; settings: Dengue virus; for EC90: read-out: EC90 Yield Den-2
Summary of the method: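 Vero cells infected with dengue-2 at MOI 0.1 were treated with compound (DMSO control) at 37° C., harvested 48 h post infection and titered on Vero cells.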

[7] = system: Bovine Viral Diarrhea Virus (BVDV); experiment: specificity: activity against BVDV; format: cell-based
Procedure: as §1

[8] = system: dengue; settings: mouse model; cited from earlier work
[9] = system: dengue; settings: cited from earlier work
[10] = Vero cells, MOI 0.1, harvested 48 hours post infection, read-out: Activity (anti-dengue 2 viral activity, EC50)
[11] = viral yield assay, Vero cells, read-out: EC50 Yield Den-2
[12] = Bovine viral diarrhea virus isolates and strains, read-out: Specificity BVDV

| SMILES | EC50 [1] [µM] | EC90 [1] [µM] | EC50 [2] [µM] | EC50 [3] [µM] | EC50 [4] [µM] | EC90 [4] [µM] | EC50 [5] [µM] | EC90 [5] [µM] | EC50 [6, 10] [µM] | EC50 [6, 11] [µM] | EC90 ([6]; viral yield assay, Vero cells) [µM] | EC50 [7, 12] [µM] | EC50 ([6]; Vero, 48 h, read-out: Activity (anti-dengue 2 viral activity, EC50)) [µM] | EC50 ([7]; Bovine viral diarrhea virus isolates and strains; read-out: Specificity BVDV) [µM] | protection against dengue [8] | adverse effects induced ([9]; animal models of dengue (mouse or rhesus monkey, not specified)) | protection against dengue ([9]; rhesus monkey model) |
| --- | --- | --- | --- | --- | --- | --- | --- | --- | --- | --- | --- | --- | --- | --- | --- | --- | --- |
| CCN(CC)S(=O)(=O)c1ccc(NC(=O)Cn2cnc3ccccc3c2=O)cc1 [Compound 1, N-(4-Diethylsulfamoyl-phenyl)-2-(4-oxo-4H-quinazolin-3-yl)-acetamide] | 1.7 | 4.1 | 1.2 | 0.3 | 1 | 8.2 | 4.3 | 10.7 | < 1 | 0.3 | 5.2 | > 50 |  |  |  |  |  |
| CCN(CC)S(=O)(=O)c1ccc(OC)c(NC(=O)C(C)C)c1 [Compound 2, N-(5-Diethylsulfamoyl-2-methoxy-phenyl)-isobutyramide] | 2.1 | 12.5 | 6.2 | 0.7 | 5.5 | 13.3 | 7.6 | 8.9 | < 1 | 0.3 | 4.1 | > 50 |  |  |  |  |  |
| CCN(CC)S(=O)(=O)c1ccc(C)c(NC(=O)Cn2cnc3cc([N+](=O)[O-])ccc3c2=O)c1 [Compound 12, N-(5-Diethylsulfamoyl-2-methyl-phenyl)-2-(7-nitro-4-oxo-4H-quinazolin-3-yl)-acetamide] | 5.2 | 14.6 | > 25 |  | 2.9 | > 25 | > 25 | > 25 |  | 11.1 | > 25 | > 50 | 1 to 10 |  |  |  |  |
| CCN(CC)S(=O)(=O)c1ccc(OC)c(NC(=O)Cn2cnc3c2c(=O)n(C)c(=O)n3C)c1 [Compound 13, N-(5-Diethylsulfamoyl-2-methoxy-phenyl)-2-(1,3-dimethyl-2,6-dioxo-1,2,3,6-tetrahydro-purin-7-yl)-acetamide] | 1.9 | 9.2 | > 25 | 2.1 | 4.1 | 9.4 | 7.1 | 8.5 | 1 to 10 | 2.4 | 10.3 | 47.7 |  |  |  |  |  |
| CCCC(=O)Nc1cc(S(=O)(=O)N(CC)CC)ccc1OC [Compound 14, N-(5-Diethylsulfamoyl-2-methoxy-phenyl)-butyramide] | 4.8 | 11.1 | > 25 |  | 4.2 | 14.9 | > 25 | > 25 | 1 to 10 | 3.6 | 27.5 |  |  | > 50 |  |  |  |
| NC(=O)c1ncn([C@@H]2O[C@H](CO)[C@@H](O)[C@H]2O)n1 [ribavirin] |  |  |  |  |  |  |  |  |  |  |  |  |  |  | did not show protection | induced anemia and thrombocytosis | did not show protection |
